Results: ChEMBL document CHEMBL1201862, “PubChem BioAssay data set” (2004)
Active and inactive are the calls of the source.

Key:
[1] = Trypanosoma cruzi growth suppression in host cells – NIH3T3 host cells, beta-gal luminescence, confirmation (AID 2044); type: functional, cell-based;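 note: intracellular parasites grown in NIH/3T3 mouse fibroblasts as host cells; luminescent beta-galactosidase reporter signal from transgenic T. cruzi replicating inside host cells; inhibitors lower the luminescence signal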
[2] = NIH3T3 cell viability loss – ATP luminescence, mouse fibroblasts, counter-screen, dose response (AID 2010); type: functional, cell-based;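 note: cells exposed to compound for about 90 hours before reading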
[3] = target: T1, Replicative DNA helicase DnaB (Mycobacterium tuberculosis, UniProt P9WMR3); assay: DnaB intein splicing inhibitors, dose response, biochemical, cell-free fluorescence (AID 449749); type: functional
T1 sequence (P9WMR3 whole entry): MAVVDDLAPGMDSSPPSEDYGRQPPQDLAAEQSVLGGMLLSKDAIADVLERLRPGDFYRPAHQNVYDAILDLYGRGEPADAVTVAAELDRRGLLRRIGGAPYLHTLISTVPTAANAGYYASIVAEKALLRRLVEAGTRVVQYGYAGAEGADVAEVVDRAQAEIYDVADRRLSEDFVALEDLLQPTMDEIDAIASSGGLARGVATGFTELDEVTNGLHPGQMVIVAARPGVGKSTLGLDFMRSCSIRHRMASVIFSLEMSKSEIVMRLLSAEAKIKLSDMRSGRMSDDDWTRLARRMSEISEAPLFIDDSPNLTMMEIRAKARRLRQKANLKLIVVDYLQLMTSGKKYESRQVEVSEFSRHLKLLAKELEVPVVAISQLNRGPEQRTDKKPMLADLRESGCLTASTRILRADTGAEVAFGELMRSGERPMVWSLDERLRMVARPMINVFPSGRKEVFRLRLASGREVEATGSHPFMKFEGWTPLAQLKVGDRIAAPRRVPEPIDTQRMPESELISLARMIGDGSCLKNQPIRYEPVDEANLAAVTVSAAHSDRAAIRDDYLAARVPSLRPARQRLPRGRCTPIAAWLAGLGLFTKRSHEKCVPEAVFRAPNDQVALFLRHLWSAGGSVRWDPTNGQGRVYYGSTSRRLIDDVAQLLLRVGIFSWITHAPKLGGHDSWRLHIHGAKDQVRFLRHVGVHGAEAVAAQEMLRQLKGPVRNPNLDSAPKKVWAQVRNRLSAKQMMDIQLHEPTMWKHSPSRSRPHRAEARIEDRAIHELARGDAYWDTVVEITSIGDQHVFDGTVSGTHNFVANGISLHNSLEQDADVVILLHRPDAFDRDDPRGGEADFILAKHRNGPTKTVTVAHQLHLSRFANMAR

[4] = target: T2, Protein RecA (Mycobacterium tuberculosis, UniProt P9WHJ3); assay: Fluorescence Cell-Free Homogeneous Dose Retest to Identify Inhibitors of RecA-Intein Splicing Activity. [Related pubchem assays (depositor defined):AID2097, AID2223, AID489010, AID492950]; type: functional
T2 sequence (P9WHJ3 whole entry): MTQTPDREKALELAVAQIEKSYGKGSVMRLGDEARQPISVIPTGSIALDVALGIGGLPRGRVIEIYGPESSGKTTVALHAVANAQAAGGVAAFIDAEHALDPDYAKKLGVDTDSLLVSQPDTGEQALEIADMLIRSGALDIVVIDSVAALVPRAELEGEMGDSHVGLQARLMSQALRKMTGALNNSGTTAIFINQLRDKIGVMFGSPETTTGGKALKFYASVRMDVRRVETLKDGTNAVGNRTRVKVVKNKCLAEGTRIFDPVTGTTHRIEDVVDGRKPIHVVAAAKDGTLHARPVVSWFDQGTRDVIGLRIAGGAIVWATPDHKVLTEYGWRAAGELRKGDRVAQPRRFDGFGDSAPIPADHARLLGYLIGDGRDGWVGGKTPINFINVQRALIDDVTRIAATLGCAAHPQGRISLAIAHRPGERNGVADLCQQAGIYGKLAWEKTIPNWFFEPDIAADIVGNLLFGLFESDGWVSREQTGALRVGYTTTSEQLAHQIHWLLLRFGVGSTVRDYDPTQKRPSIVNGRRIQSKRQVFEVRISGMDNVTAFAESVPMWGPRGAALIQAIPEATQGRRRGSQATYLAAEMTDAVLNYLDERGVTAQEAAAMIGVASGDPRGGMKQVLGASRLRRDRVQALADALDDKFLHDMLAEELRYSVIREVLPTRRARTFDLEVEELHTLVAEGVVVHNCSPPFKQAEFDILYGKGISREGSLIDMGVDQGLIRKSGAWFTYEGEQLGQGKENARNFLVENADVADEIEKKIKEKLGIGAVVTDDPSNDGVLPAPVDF

[5] = target: Genome polyprotein (dengue virus type 2, UniProt P29990); assay: flavivirus cap methylation enzyme inhibition – biochemical, confirmation dose response, primary screen (AID 588689); type: functional
[6] = reduction of Shn3 3'UTR-driven luciferase in osteoblasts – cell-based, Clone20 osteoblasts, firefly luciferase, cherry-picked, dose response (AID 624132); type: functional;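 note: firefly luciferase luminescence from reporter carrying the Shn3 3'UTR in osteoblasts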
[7] = loss of viability in HepG2 cells – cell-based, CellTiter-Glo, cherry-picked, cytotoxicity control for Shn3 inhibitor project, dose response (AID 624134); type: functional
[8] = non-specific 3'UTR reporter inhibition in Clone20-Shn3RL – cell-based, Renilla luciferase, cherry-picked, counter-screen for Shn3 inhibitor project, dose response (AID 624133); type: functional
[9] = Fluorescence-based cell-based high throughput dose response assay for inhibitors of the interaction of nucleotide-binding oligomerization domain containing 2 (NOD2) and the receptor-interacting serine-threonine kinase 2 (RIPK2).; type: functional; conditions: Homo sapiens
[10] = viability loss in HeLa cells – cytotoxicity control for MgcRacGAP inhibitor project, dose response (AID 624300); type: functional
[11] = target: T3, Rac GTPase-activating protein 1 (Homo sapiens, UniProt Q9H0H5); assay: blockers of MgcRacGAP-driven Rac1 GTP hydrolysis – biochemical, ADP Hunter fluorescence, primary and confirmatory, confirmation (AID 624330); type: functional
T3 sequence (Q9H0H5 whole entry): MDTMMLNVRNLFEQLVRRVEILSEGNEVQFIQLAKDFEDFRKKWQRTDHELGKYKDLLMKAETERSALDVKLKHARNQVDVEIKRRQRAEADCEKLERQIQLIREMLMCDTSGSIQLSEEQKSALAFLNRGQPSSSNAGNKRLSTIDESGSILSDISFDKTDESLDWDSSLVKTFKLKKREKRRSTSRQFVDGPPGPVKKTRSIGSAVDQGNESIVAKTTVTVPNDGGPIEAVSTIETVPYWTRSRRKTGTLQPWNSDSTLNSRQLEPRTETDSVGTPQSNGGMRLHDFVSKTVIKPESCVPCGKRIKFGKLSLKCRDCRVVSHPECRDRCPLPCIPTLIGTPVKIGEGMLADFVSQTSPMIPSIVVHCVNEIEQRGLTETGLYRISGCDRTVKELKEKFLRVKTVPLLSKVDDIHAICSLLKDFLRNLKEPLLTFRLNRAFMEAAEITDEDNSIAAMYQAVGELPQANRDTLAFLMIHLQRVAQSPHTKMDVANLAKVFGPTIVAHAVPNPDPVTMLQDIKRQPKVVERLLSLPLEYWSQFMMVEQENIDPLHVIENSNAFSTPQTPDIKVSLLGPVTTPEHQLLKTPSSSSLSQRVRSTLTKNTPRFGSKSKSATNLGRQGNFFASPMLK

[12] = reduced cellular PGC1a acetyl-lysine signal – cell-based, cherry-picked samples, dose response (AID 720514); type: functional;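 note: potency may reflect raised or lowered acetylation signal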
[13] = target: T4, Carboxy-terminal domain RNA polymerase II polypeptide A small phosphatase 1 (Homo sapiens, UniProt Q9GZU7); assay: CTDSP1 inhibitors, concentration-response, biochemical, absorbance readout, ultra-high-throughput screen actives (AID 540297); type: functional
T4 sequence (Q9GZU7 whole entry): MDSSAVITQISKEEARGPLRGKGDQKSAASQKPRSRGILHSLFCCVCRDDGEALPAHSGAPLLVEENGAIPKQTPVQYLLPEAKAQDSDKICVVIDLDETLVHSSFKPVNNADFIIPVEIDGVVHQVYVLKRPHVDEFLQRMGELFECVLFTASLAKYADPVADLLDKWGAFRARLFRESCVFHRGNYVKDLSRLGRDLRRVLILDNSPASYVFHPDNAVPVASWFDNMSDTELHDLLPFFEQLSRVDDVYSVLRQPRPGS

[14] = target: T5, Probable nicotinate-nucleotide adenylyltransferase (Staphylococcus aureus (strain N315), UniProt P65502); type: functional, Staphylococcus aureus subsp. aureus N315;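 for IC50 Mean: confirmatory dose-response retesting of NadD inhibitor hits first found in an ultra-high-throughput screen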
[15] = target: T5, Probable nicotinate-nucleotide adenylyltransferase; type: functional, Staphylococcus aureus subsp. aureus N315; conditions: read-out: IC50_Mean
[16] = target: T6, RNA-binding protein pos-1 (Caenorhabditis elegans, UniProt G5EF15); assay: disruptors of C. elegans POS-1 RNA interaction – biochemical, fluorescence polarization, dose response (AID 1964);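 note: purified POS-1 fused to maltose binding protein made in E. coli; potency of compounds blocking POS-1 binding to fluorescent RNA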
T6 sequence (G5EF15 whole entry): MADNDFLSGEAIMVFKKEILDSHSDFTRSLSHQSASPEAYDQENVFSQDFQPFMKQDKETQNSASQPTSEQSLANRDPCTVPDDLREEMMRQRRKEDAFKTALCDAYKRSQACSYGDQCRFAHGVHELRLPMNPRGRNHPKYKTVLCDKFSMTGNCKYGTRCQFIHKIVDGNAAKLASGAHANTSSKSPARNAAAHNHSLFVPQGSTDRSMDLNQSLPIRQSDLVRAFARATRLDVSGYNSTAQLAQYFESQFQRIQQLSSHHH

[17] = target: T7, Zinc finger protein mex-5 (Caenorhabditis elegans, UniProt Q9XUB2); assay: potency of MEX-5 RNA-binding blockers – biochemical, C. elegans, fluorescence polarization, dose response (AID 1960)
T7 sequence (Q9XUB2 whole entry): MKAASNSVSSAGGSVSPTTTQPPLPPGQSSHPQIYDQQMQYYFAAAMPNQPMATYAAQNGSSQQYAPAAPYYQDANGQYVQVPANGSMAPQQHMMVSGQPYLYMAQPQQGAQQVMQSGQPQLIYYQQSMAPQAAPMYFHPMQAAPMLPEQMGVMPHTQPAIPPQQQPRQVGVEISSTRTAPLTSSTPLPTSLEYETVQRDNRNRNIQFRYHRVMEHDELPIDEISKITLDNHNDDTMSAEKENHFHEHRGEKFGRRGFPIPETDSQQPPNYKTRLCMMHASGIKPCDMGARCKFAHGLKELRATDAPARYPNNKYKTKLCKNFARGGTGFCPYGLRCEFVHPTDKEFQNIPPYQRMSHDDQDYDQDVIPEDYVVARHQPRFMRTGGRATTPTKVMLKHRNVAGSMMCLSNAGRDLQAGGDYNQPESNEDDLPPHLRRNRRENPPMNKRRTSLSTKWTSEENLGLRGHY

[18] = target: Albumin (Bos taurus, UniProt P02769); assay: Counterscreen for inhibitors of T-cell receptor (TCR)-CD3 interaction: Fluorescence-based biochemical high throughput dose response assay to identify inhibitors of T-cell receptor (TCR)-CD3 interaction using a TAMRA-labeled BSA probe.; type: functional
[19] = target: T8, Small ubiquitin-related modifier 1 (Homo sapiens, UniProt P63165); assay: SUMO1 protein interaction blockers, potency – biochemical, fluorescence polarization, uHTS hits, dose response (AID 624382); type: functional; conditions: read-out: IC50_Mean
[20] = target: T8, Small ubiquitin-related modifier 1; assay: SUMO1 protein-protein binding blockers, potency – biochemical, FRET, dose response (AID 624383); type: functional; conditions: read-out: IC50_Mean
[21] = T. cruzi growth inhibition in host cells, dose response, cell-based, plate reader, dry powder, set 2 (AID 652275); type: functional
[22] = viability loss in HEK293 kidney cells – cell-based, cherry-picks, set 5, cytotoxicity control, dose response (AID 1053117); type: functional

T8 sequence (P63165 whole entry): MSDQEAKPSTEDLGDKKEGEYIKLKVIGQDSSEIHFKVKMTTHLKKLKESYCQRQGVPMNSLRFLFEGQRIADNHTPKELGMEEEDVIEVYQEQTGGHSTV
T5 sequence (P65502 whole entry): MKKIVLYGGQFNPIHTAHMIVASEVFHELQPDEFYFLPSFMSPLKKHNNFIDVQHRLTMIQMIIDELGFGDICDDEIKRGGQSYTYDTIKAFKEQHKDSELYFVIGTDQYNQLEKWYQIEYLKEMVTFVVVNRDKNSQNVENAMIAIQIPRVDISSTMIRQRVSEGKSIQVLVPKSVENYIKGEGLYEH
Sequence of Genome polyprotein (P29990 2492-3391 limits assumed): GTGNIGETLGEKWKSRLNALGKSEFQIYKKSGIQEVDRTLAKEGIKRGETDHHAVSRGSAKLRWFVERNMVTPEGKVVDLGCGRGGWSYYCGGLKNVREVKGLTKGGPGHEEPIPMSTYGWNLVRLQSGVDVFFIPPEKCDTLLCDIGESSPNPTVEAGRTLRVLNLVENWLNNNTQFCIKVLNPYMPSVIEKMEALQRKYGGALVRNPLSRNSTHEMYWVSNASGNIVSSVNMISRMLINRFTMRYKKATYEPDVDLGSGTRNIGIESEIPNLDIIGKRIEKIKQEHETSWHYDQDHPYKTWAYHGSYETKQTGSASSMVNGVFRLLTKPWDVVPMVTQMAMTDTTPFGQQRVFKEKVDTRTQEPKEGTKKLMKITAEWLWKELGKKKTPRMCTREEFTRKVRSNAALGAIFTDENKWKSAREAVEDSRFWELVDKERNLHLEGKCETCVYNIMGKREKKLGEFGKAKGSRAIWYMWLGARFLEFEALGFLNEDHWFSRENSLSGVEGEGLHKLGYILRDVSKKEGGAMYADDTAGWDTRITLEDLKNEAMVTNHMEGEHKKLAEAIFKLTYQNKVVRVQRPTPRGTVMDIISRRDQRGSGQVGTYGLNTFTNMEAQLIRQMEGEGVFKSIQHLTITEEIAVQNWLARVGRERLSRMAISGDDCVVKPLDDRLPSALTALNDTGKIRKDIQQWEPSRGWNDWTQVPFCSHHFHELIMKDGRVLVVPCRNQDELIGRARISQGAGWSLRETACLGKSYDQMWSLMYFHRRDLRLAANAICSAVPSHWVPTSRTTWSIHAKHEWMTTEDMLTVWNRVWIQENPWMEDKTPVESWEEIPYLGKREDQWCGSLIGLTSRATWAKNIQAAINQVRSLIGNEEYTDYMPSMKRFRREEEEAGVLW
Sequence of Albumin (P02769 whole entry): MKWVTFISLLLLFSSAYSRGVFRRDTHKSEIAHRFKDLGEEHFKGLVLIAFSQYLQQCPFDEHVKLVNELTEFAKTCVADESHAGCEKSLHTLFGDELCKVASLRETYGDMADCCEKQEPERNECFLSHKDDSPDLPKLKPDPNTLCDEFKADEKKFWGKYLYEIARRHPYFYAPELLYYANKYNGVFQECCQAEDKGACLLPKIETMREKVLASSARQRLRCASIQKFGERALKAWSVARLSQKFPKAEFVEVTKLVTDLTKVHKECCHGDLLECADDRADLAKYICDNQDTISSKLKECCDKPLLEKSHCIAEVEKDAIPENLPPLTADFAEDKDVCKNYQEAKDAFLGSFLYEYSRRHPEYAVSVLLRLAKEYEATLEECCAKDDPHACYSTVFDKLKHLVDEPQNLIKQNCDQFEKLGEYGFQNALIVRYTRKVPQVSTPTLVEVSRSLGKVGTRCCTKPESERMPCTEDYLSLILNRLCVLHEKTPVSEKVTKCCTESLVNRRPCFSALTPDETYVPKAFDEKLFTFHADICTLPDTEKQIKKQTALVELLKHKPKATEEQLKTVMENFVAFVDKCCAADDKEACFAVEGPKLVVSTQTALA

O=C(Nc1ccccc1)C1=C(c2ccccc2)S(=O)(=O)CCS1(=O)=O
EC50 [1]: 1.31 µM (active)
EC50 [2]: 2.06 µM (active)
AC50 [3]: 1.42 µM (active)
EC50 [4]: 0.682 µM (active)
IC50 [5]: > 100 µM (active)
AC50 [6]: 1.37 µM (active)
AC50 [7]: 15.4 µM (active)
AC50 [8]: 10.3 µM (active)
IC50 [9]: 3.59 µM (active)
CC50 [10]: 71.9 µM (active)
IC50 [11]: 123 µM (active)
AC50 [12]: 8.27 µM (active)

C[C@@H]1CN([C@H](C)CO)C(=O)c2cc(NC(=O)c3ccncc3)ccc2O[C@@H]1CN(C)C(=O)Nc1ccccc1
IC50 [13]: 12.8 µM (active)
IC50 [14]: 26.9 µM (active)
IC50 [15]: 35.2 µM (active)

CCC(=O)Nc1ccc2nc3c(O)nc(S)nc3nc2c1
EC50 [16]: 20.9 µM (active)
EC50 [17]: 12.3 µM (active)
IC50 [5]: 39.4 µM (active)
IC50 [18]: > 94.1 µM (inactive)

Cn1c(-c2ccc(Cl)cc2)cnc1NCc1cc2c(cc1[N+](=O)[O-])OCO2
CC50 [10]: 100 µM (active)
IC50 [11]: 73.5 µM (active)

COc1ccc(C(=O)Nc2nc3cc4c(cc3s2)OCCO4)c(OC)c1
IC50 [19]: > 66.6 µM (inactive)
IC50 [20]: 2.77 µM (active)

O=C(COC(=O)CCC(=O)c1ccc(F)cc1)Nc1ccc2[nH]c(O)nc2c1
IC50 [19]: > 66.6 µM (inactive)
IC50 [20]: 17.6 µM (active)

Cc1ccc(S(=O)(=O)Nc2ccc(Nc3nccn4c(-c5cccc(OC(F)(F)F)c5)cnc34)cc2)cc1
IC50 [14]: 16.2 µM (active)
IC50 [15]: 27.2 µM (active)

COc1cccc(-c2ccc([C@H]3[C@H](CO)N4CCCCN(C(=O)Cc5ccncc5)C[C@@H]34)cc2)c1
AC50 [21]: 2.13 µM (active)

CC(C)(O)C#Cc1cccc(-c2nc(C(=O)NCc3ccc4c(c3)OCO4)cc3c2[C@H](CCO)N([S+]([O-])C(C)(C)C)C3)c1 (stereo partly specified)
AC50 [21]: 2.44 µM (active)

C[C@H](CO)N1C[C@H](C)[C@@H](CN(C)C(=O)c2cccc(F)c2)Oc2ncc(-c3ccccc3)cc2C1=O
AC50 [22]: > 52 µM (inactive)

CC(C)N1C[C@H](C)[C@@H](CN(C)Cc2ccc(Oc3ccccc3)cc2)Oc2c(cccc2-c2nn[nH]n2)C1=O
AC50 [21]: 7.34 µM (active)
